Data on five compounds can be found in patent US6495542B1, “Benzamide derivatives as vasopressin antagonists” (Fujisawa Pharmaceutical Co., Ltd., priority 1998, dated 2002).

SMILES strings stand for the structures. Where a name gives a salt, the structure may show the parent alone.

Usually IC50 stands for the concentration needed to halve the response being measured. High values mean a need for much substance, low ones inhibition by little substance.

The target in assay [1] is Vasopressin 1 (VI) Receptor (Rattus norvegicus, UniProt P30560). The experiment in a line: Vasopressin 1 (V1) receptor binding, rat. Particulars: Test 1 V1 receptor binding. The procedure:
(§1) Vasopressin 1 (VI) Receptor Binding
(§2) Competition assays were conducted at equilibrium (15 minutes at 30° C.) by using 1.5 nM ^3H-vasopressin (40-87 Ci/mmol; New England Nuclear) in 100 mM Tris-HCl buffer (pH 7.4). Nonspecific binding was determined by using 1 μM vasopressin. After incubation, the reaction was terminated by adding 5 ml of ice-cold 100 mM Tris-HCl buffer (pH 7.4), and then filtered immediately through Whatman glass filter (GF/C). The filter was washed twice with the same buffer. The glass filter was placed in a liquid scintillation cocktail, and the radioactivity thereof was counted by using a liquid scintillation counter. Competition activity of the test compound was represented by IC50 values.

Assay [2] has as its target T1, human V2 receptor (Homo sapiens, UniProt P30518).
T1 construct: expressed in transfected cells
The experiment in a line: Vasopressin 2 (V2) receptor binding, 3H-vasopressin competition on membranes of CHO cells expressing human V2 receptor. Particulars: human V2 receptor in CHO cells; competition with 0.5 nm 3H-vasopressin, 2 hours at 22° C. The text has this:
Vasopressin 2 (V2) Receptor Binding
For binding assays, a receptor cDNA was permanently expressed in Chinese hamster ovary (CHO) cells. A vector directing expression of the cDNA of a human V2 receptor was transfected into the CHO cells, and the clonal cell lines expressing the human V2 receptor were established essentially as described previously (Nakajima, Y., et. al. J. Biol. chem., 267, 2437, 1992).
DNA-transfected cells were harvested and homogenized in ice-cold […] Tris-HCl (pH 7.4), 10 mM MgCl2, 1 mM EDTA and 5 μg/ml p-amidinophenylmethylsulfonyl fluoride (A-PMSF). The homogenate was centrifuged at 500×g for 10 minutes. The supernatant was centrifuged at […] for 1 hour. The final pellet was suspended in 25 mM Tris-HCl buffer (pH 7.4, containing 10 mM MgCl2, 1 mM EDTA and 5 μg/ml A-PMSF), and stored in small aliquots at −80° C.
Competition assays were conducted at equilibrium (2 hours at 22° C.) by using 0.5 nm ^3H-vasopressin (40-87 Ci/mmol; New England Nuclear) in 100 mM Tris-HCl buffer (pH 7.4, containing 5 mM MgCl2, 5 μg/ml A-PMSF, 4 μg/ml leupeptin, 40 μg/ml bacitracin, 20 μg/ml chymostatin and 0.1% bovine serum albimin). Nonspecific binding was determined by using 1 μM vasopressin. After incubation, the reaction mixture was immediately filtered through Whatman glass filter (GF/C). The filter was washed twice with the same buffer. The radioactivity was counted by using a liquid scintillation counter. Competition activity of the test compound was represented by IC50 values.

The target in assay [3] is T2, Vasopressin 1 (VI) Receptor (Homo sapiens, UniProt P37288).
T2 construct: Platelet-rich plasma (PRP) was prepared by centrifugation of whole blood; from tissue; host or cells: platelet membranes from blood of a normal subject
T2 sequence (P37288 whole entry): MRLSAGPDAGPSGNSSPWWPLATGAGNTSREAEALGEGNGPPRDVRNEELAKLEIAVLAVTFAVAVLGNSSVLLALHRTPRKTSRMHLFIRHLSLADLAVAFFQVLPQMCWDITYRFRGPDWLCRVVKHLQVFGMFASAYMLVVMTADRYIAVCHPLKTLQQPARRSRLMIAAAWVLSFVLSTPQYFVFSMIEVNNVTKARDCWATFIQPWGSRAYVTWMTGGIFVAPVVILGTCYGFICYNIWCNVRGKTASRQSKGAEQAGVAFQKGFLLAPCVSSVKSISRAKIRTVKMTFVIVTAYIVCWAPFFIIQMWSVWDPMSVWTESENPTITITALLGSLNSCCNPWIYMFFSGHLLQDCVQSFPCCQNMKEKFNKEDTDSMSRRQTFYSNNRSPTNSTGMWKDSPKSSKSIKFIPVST
The experiment in a line: Vasopressin 1 (V1) receptor binding, 3H-vasopressin competition on human platelet membranes. Particulars: competition with 1.5 nM 3H-vasopressin, 15 minutes at 30° C. The procedure: as §1
Blood was obtained from normal subject by venipuncture. Platelet-rich plasma (PRP) was prepared by centrifugation of whole blood at 200×g for 10 minutes. PRP was centrifuged at 45,000×g for 30 minutes. The remaining pellet was resuspended in 10 volume of ice-cold 100 mM Tris-HCl buffer (pH 7.4, containing 5 mM MgCl2, 0.1% bovine serum albumin and 1 mM EDTA), and again centrifuged at 45,000×g for 30 minutes. The final pellet was resuspended in 100 mM Tris-HCl buffer. The resulting suspension was used immediately for the binding assay.
as §2

T1 sequence (P30518 whole entry): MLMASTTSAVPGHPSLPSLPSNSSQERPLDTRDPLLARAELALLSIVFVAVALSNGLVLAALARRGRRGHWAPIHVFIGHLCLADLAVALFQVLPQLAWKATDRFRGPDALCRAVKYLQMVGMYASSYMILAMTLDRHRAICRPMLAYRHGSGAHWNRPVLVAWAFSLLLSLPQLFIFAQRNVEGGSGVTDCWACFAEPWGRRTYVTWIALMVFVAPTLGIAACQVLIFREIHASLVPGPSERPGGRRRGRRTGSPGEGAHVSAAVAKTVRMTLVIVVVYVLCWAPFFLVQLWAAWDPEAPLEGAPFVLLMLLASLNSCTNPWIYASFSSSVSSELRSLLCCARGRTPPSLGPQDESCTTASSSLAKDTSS
Vasopressin 1 (VI) Receptor (Rattus norvegicus, UniProt P30560), sequence (P30560 whole entry): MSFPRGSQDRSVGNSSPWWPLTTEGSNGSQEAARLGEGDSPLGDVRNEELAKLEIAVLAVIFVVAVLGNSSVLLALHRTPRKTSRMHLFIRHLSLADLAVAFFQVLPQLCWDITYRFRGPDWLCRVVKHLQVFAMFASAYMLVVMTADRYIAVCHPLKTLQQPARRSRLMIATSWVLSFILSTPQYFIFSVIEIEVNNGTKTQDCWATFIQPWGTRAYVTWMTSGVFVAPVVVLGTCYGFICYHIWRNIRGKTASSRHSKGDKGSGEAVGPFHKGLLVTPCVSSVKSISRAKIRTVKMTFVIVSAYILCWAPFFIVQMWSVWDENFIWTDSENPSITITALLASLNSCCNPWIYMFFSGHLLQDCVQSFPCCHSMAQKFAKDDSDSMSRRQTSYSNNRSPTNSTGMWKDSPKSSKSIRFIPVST

`COc1cc(C(=O)N2CCCCc3ccccc32)ccc1C(=O)Nc1cccc2[nH]c(C)nc12` [Example 2, 2-methoxy-N-(2-methyl-1H-benzimidazol-4-yl)-4-(2,3,4,5-tetrahydro-1H-1-benzazepin-1-yl)-carbonylbenzamide]: the IC50 in assay [1] was determined as 2.1 nM; in assay [2], 241 nM; in assay [3], 0.41 nM.

With `COc1cc(C(=O)N2CCCCc3ccccc32)ccc1C(=O)Nc1cccc2[nH]cnc12` [Example 50, N-(1H-Benzimidazol-4-yl)-2-methoxy-4-(2,3,4,5-tetrahydro-1H-1-benzazepin-1-yl)carbonylbenzamide hydrochloride], the IC50 came to 1.8 nM in assay [1], 69 nM in assay [2] and 0.55 nM in assay [3].

In the case of `CCc1nc2c(NC(=O)c3ccc(C(=O)N4CCCCc5ccccc54)cc3OC)cccc2[nH]1` [Example 55, N-(2-Ethyl-1H-benzimidazol-4-yl)-2-methoxy-4-(2,3,4,5-tetrahydro-1H-1-benzazepin-1-yl)carbonylbenzamide hydrochloride], the IC50 in assay [1] came out at 1.7 nM; in assay [2], 104 nM; in assay [3] it was 0.7 nM.

On to `COc1cc(C(=O)N2CCCCc3ccccc32)ccc1C(=O)Nc1cccc2[nH]c(C(=O)N(C)C)nc12` [Example 73, N-[2-(N,N-Dimethylcarbamoyl)-1H-benzimidazol-4-yl]-2-methoxy-4-(2,3,4,5-tetrahydro-1H-1-benzazepin-1-yl)carbonylbenzamide], for which the IC50 stood at 2.2 nM in assay [1], 159 nM in assay [2] and 0.5 nM in assay [3].

For the compound `COc1cc(C(=O)N2CCCCc3ccccc32)ccc1C(=O)Nc1cccc2[nH]c(N(C)CCN)nc12` [Example 76, N-[2-[N-(2-Aminoethyl)-N-methylamino]-1H-benzimidazol-4-yl]-2-methoxy-4-(2,3,4,5-tetrahydro-1H-1-benzazepin-1-yl)carbonylbenzamide dihydrochloride], the IC50 in assay [1] was found to be 0.2 nM; in assay [2] it was 140 nM; in assay [3], 0.08 nM.
